# According to PubChem BioAssay (NCI):
#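 Protocol summary: plate cells (96-well), add compound at 5 concentrations, incubate 48 h, interpolate endpoints linearly. At the GI50, growth is halved. TGI is the concentration that stops growth completely.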
# Experiments:
# Test in all cases: NCI anticancer screen, dose series, 48 h
# A498 renal = tested on: A498 renal
# ACHN renal = tested on: ACHN renal
# BT-549 breast = tested on: BT-549 breast
# CAKI-1 renal = tested on: CAKI-1 renal
# CCRF-CEM leukemia = tested on: CCRF-CEM leukemia
# DU-145 prostate = tested on: DU-145 prostate
# EKVX NSCLC = tested on: EKVX NSCLC
# HL-60(TB) leukemia = tested on: HL-60(TB) leukemia
# HOP-62 NSCLC = tested on: HOP-62 NSCLC
# HOP-92 NSCLC = tested on: HOP-92 NSCLC
# HS 578T breast = tested on: HS 578T breast
# MALME-3M melanoma = tested on: MALME-3M melanoma
# MDA-MB-231 breast = tested on: MDA-MB-231 breast
# MDA-MB-435 = tested on: MDA-MB-435
# MOLT-4 leukemia = tested on: MOLT-4 leukemia
# NCI-H226 lung = tested on: NCI-H226 lung
# NCI-H522 lung = tested on: NCI-H522 lung
# NCI/ADR-RES ovarian = tested on: NCI/ADR-RES ovarian
# OVCAR-5 ovarian = tested on: OVCAR-5 ovarian
# PC-3 prostate = tested on: PC-3 prostate
# RPMI-8226 leukemia = tested on: RPMI-8226 leukemia
# RXF 393 renal = tested on: RXF 393 renal
# SF-295 CNS = tested on: SF-295 CNS
# SF-539 CNS = tested on: SF-539 CNS
# SK-MEL-2 melanoma = tested on: SK-MEL-2 melanoma
# SK-MEL-28 melanoma = tested on: SK-MEL-28 melanoma
# SK-MEL-5 melanoma = tested on: SK-MEL-5 melanoma
# SK-OV-3 ovarian = tested on: SK-OV-3 ovarian
# SN12C renal = tested on: SN12C renal
# SNB-75 CNS = tested on: SNB-75 CNS
# T-47D breast = tested on: T-47D breast
# TK-10 renal = tested on: TK-10 renal
# UACC-257 melanoma = tested on: UACC-257 melanoma
# UACC-62 melanoma = tested on: UACC-62 melanoma
# UO-31 renal = tested on: UO-31 renal
# 786-0 renal = tested on: 786-0 renal
# A549 NSCLC = tested on: A549 NSCLC
# HT29 colon = tested on: HT29 colon
# IGROV1 ovarian = tested on: IGROV1 ovarian
# K-562 leukemia = tested on: K-562 leukemia
# KM12 colon = tested on: KM12 colon
# NCI-H23 lung = tested on: NCI-H23 lung
# OVCAR-4 ovarian = tested on: OVCAR-4 ovarian
# SF-268 CNS = tested on: SF-268 CNS
# SNB-19 CNS = tested on: SNB-19 CNS
# SR leukemia = tested on: SR leukemia
# SW-620 colon = tested on: SW-620 colon
smiles,measurement,setting,value
COc1cc(/C=N/n2cnc3oc(-c4ccccc4)cc3c2=N)cc(CN2CCCC2)c1O,GI50,A498 renal,12.9 µM
same,TGI,A498 renal,40.2 µM
same,GI50,ACHN renal,1.61 µM
same,TGI,ACHN renal,3.18 µM
same,GI50,BT-549 breast,23.6 µM
same,TGI,BT-549 breast,58.4 µM
same,GI50,CAKI-1 renal,1.4 µM
same,TGI,CAKI-1 renal,2.88 µM
same,GI50,CCRF-CEM leukemia,1.96 µM
same,TGI,CCRF-CEM leukemia,5.75 µM
same,GI50,DU-145 prostate,1.83 µM
same,TGI,DU-145 prostate,3.35 µM
same,GI50,EKVX NSCLC,1.83 µM
same,TGI,EKVX NSCLC,3.77 µM
same,GI50,HL-60(TB) leukemia,3.51 µM
same,TGI,HL-60(TB) leukemia,14.2 µM
same,GI50,HOP-62 NSCLC,2.02 µM
same,TGI,HOP-62 NSCLC,5.04 µM
same,GI50,HOP-92 NSCLC,1.92 µM
same,TGI,HOP-92 NSCLC,13 µM
same,GI50,HS 578T breast,13.5 µM
same,TGI,HS 578T breast,34 µM
same,GI50,MALME-3M melanoma,1.9 µM
same,TGI,MALME-3M melanoma,3.96 µM
same,GI50,MDA-MB-231 breast,1.49 µM
same,TGI,MDA-MB-231 breast,2.9 µM
same,GI50,MDA-MB-435,1.69 µM
same,TGI,MDA-MB-435,3.19 µM
same,GI50,MOLT-4 leukemia,2.18 µM
same,TGI,MOLT-4 leukemia,6.49 µM
same,GI50,NCI-H226 lung,5.84 µM
same,TGI,NCI-H226 lung,34.1 µM
same,GI50,NCI-H522 lung,2.22 µM
same,TGI,NCI-H522 lung,5.79 µM
same,GI50,NCI/ADR-RES ovarian,1.96 µM
same,TGI,NCI/ADR-RES ovarian,4.04 µM
same,GI50,OVCAR-5 ovarian,1.67 µM
same,TGI,OVCAR-5 ovarian,3.21 µM
same,GI50,PC-3 prostate,1.5 µM
same,TGI,PC-3 prostate,3.13 µM
same,GI50,RPMI-8226 leukemia,2.08 µM
same,TGI,RPMI-8226 leukemia,4.82 µM
same,GI50,RXF 393 renal,1.35 µM
same,TGI,RXF 393 renal,3.43 µM
same,GI50,SF-295 CNS,1.89 µM
same,TGI,SF-295 CNS,3.9 µM
same,GI50,SF-539 CNS,1.75 µM
same,TGI,SF-539 CNS,3.46 µM
same,GI50,SK-MEL-2 melanoma,21.2 µM
same,TGI,SK-MEL-2 melanoma,47.3 µM
same,GI50,SK-MEL-28 melanoma,1.82 µM
same,TGI,SK-MEL-28 melanoma,3.56 µM
same,GI50,SK-MEL-5 melanoma,3.49 µM
same,TGI,SK-MEL-5 melanoma,15.9 µM
same,GI50,SK-OV-3 ovarian,18 µM
same,TGI,SK-OV-3 ovarian,38.5 µM
same,GI50,SN12C renal,1.58 µM
same,TGI,SN12C renal,3.25 µM
same,GI50,SNB-75 CNS,0.856 µM
same,TGI,SNB-75 CNS,2.26 µM
same,GI50,T-47D breast,1.96 µM
same,TGI,T-47D breast,4.69 µM
same,GI50,TK-10 renal,26.4 µM
same,TGI,TK-10 renal,49.2 µM
same,GI50,UACC-257 melanoma,20.5 µM
same,TGI,UACC-257 melanoma,43.8 µM
same,GI50,UACC-62 melanoma,19.6 µM
same,TGI,UACC-62 melanoma,40.8 µM
same,GI50,UO-31 renal,1.42 µM
same,TGI,UO-31 renal,3.08 µM
CCCCCc1ccc(S(=O)(=O)Nc2cccc(-c3csc(NC(=O)CCCCCN4CCN(C)CC4)n3)c2)cc1,GI50,786-0 renal,1.86 µM
same,TGI,786-0 renal,3.38 µM
same,GI50,A498 renal,3.36 µM
same,TGI,A498 renal,11.9 µM
same,GI50,A549 NSCLC,1.94 µM
same,TGI,A549 NSCLC,4.38 µM
same,GI50,ACHN renal,1.86 µM
same,TGI,ACHN renal,3.56 µM
same,GI50,BT-549 breast,2.29 µM
same,TGI,BT-549 breast,9.55 µM
same,GI50,CCRF-CEM leukemia,2.76 µM
same,TGI,CCRF-CEM leukemia,13.7 µM
same,GI50,DU-145 prostate,2.11 µM
same,TGI,DU-145 prostate,4.32 µM
same,GI50,EKVX NSCLC,2.07 µM
same,TGI,EKVX NSCLC,5.29 µM
same,GI50,HOP-92 NSCLC,1.44 µM
same,TGI,HOP-92 NSCLC,3.3 µM
same,GI50,HS 578T breast,1.92 µM
same,TGI,HS 578T breast,4.7 µM
same,GI50,HT29 colon,1.86 µM
same,TGI,HT29 colon,3.67 µM
same,GI50,IGROV1 ovarian,2.27 µM
same,TGI,IGROV1 ovarian,5.29 µM
same,GI50,K-562 leukemia,2.42 µM
same,TGI,K-562 leukemia,17.5 µM
same,GI50,KM12 colon,1.86 µM
same,TGI,KM12 colon,3.49 µM
same,GI50,MDA-MB-231 breast,1.85 µM
same,TGI,MDA-MB-231 breast,3.89 µM
same,GI50,MOLT-4 leukemia,2.98 µM
same,TGI,MOLT-4 leukemia,9.5 µM
same,GI50,NCI-H226 lung,2.55 µM
same,TGI,NCI-H226 lung,7.16 µM
same,GI50,NCI-H23 lung,2.46 µM
same,TGI,NCI-H23 lung,6.52 µM
same,GI50,NCI/ADR-RES ovarian,8.99 µM
same,TGI,NCI/ADR-RES ovarian,39.4 µM
same,GI50,OVCAR-4 ovarian,2.74 µM
same,TGI,OVCAR-4 ovarian,8.69 µM
same,GI50,OVCAR-5 ovarian,2.16 µM
same,TGI,OVCAR-5 ovarian,5.13 µM
same,GI50,PC-3 prostate,2.2 µM
same,TGI,PC-3 prostate,6.42 µM
same,GI50,RPMI-8226 leukemia,1.83 µM
same,TGI,RPMI-8226 leukemia,4.38 µM
same,GI50,RXF 393 renal,1.64 µM
same,TGI,RXF 393 renal,3.35 µM
same,GI50,SF-268 CNS,1.86 µM
same,TGI,SF-268 CNS,3.93 µM
same,GI50,SF-295 CNS,1.93 µM
same,TGI,SF-295 CNS,3.95 µM
same,GI50,SF-539 CNS,1.67 µM
same,TGI,SF-539 CNS,3.09 µM
same,GI50,SK-MEL-2 melanoma,1.76 µM
same,TGI,SK-MEL-2 melanoma,3.47 µM
same,GI50,SK-MEL-28 melanoma,1.84 µM
same,TGI,SK-MEL-28 melanoma,3.37 µM
same,GI50,SN12C renal,2.74 µM
same,TGI,SN12C renal,8.65 µM
same,GI50,SNB-19 CNS,2.9 µM
same,TGI,SNB-19 CNS,9.8 µM
same,GI50,SNB-75 CNS,1.6 µM
same,TGI,SNB-75 CNS,3.88 µM
same,GI50,SR leukemia,1.96 µM
same,TGI,SR leukemia,4.79 µM
same,GI50,SW-620 colon,1.73 µM
same,TGI,SW-620 colon,3.23 µM
same,GI50,T-47D breast,1.96 µM
same,TGI,T-47D breast,4.93 µM
same,GI50,TK-10 renal,2.03 µM
same,TGI,TK-10 renal,4.51 µM
same,GI50,UACC-257 melanoma,1.64 µM
same,TGI,UACC-257 melanoma,3.23 µM
same,GI50,UO-31 renal,1.62 µM
same,TGI,UO-31 renal,3.23 µM
